# In ChEMBL document CHEMBL4152235, “Synthesis, anionophoric activity and apoptosis-inducing bioactivity of benzimidazolyl-based transmembrane anion transporters” (Eur J Med Chem, 2018):
# pEC50, pIC50: −log10 of the molar value. Activity calls are given as the source filed them. No cut-off for these calls is given here.
# What was measured:
# [1] = Ionophoric activity across lucigenin probe encapsulated pH 7 egg yolk L-alpha-phosphatidylcholine-based large unilamellar vesicles loaded with NaNO3 assessed as chloride ion efflux at 0.0625 to 1 mol% after 20 mins in presence of NaCl loaded external vesicles by fluorescence method
# [2] = Ionophoric activity across lucigenin probe encapsulated pH 7 egg yolk L-alpha-phosphatidylcholine-based large unilamellar vesicles loaded with Na2SO4 assessed as chloride ion efflux at 1 mol% after 20 mins in presence of NaCl loaded external vesicles by fluorescence method
# [3] = Ionophoric activity across pyranine dye encapsulated pH 7 egg yolk L-alpha-phosphatidylcholine-based liposomal membranes assessed as chloride ion transport by measuring induction of pH discharge at 0.25 mol% after 20 mins in presence of LiCl loaded external vesicles by fluorescence method
# [4] = Ionophoric activity across pyranine dye encapsulated pH 7 egg yolk L-alpha-phosphatidylcholine-based liposomal membranes assessed as chloride ion transport by measuring induction of pH discharge at 0.25 mol% after 20 mins in presence of RbCl loaded external vesicles by fluorescence method
# [5] = Ionophoric activity across pyranine dye encapsulated pH 7 egg yolk L-alpha-phosphatidylcholine-based liposomal membranes assessed as chloride ion transport by measuring induction of pH discharge at 0.25 mol% after 20 mins in presence of CsCl loaded external vesicles by fluorescence method
# [6] = Ionophoric activity across pyranine dye encapsulated pH 7 egg yolk L-alpha-phosphatidylcholine-based liposomal membranes assessed as chloride ion transport by measuring induction of pH discharge after 20 mins in presence of NaCl loaded external vesicles by fluorescence method relative to m-Bimbe
# A549 [7] = test: Cytotoxicity against human A549 cells assessed as reduction in cell viability at 50 uM after 48 hrs by MTT assay relative to control; format: functional; conditions: A549, 48 h
# [8] = Ionophoric activity across lucigenin probe encapsulated pH 7 egg yolk L-alpha-phosphatidylcholine-based large unilamellar vesicles loaded with Na2SO4 assessed as chloride ion efflux at 1 mol% after 20 mins in presence of NaCl/Na2SO4 loaded external vesicles by fluorescence method
# [9] = (§1) Ionophoric activity across pyranine dye encapsulated pH 7 egg yolk L-alpha-phosphatidylcholine-based liposomal membranes assessed as chloride ion transport by measuring induction of pH discharge at 0.25 mol% after 20 mins in presence of NaCl loaded external vesicles by fluorescence method
# [10] = Ionophoric activity across pyranine dye encapsulated pH 7 egg yolk L-alpha-phosphatidylcholine-based liposomal membranes assessed as chloride ion transport by measuring induction of pH discharge after 20 mins in presence of NaCl loaded external vesicles by fluorescence method; conditions: for pEC50: read-out: EC50
# [11] = as §1, with “measuring initial rate constant for” for “measuring”, “0.5” for “0.25”, “method (reference value: 5.03 +/- 1.02 10^-3/min)” for “method”
# [12] = Binding affinity to chloride ion at 1.5 x 10^-5M using tetra(n-butyl)ammonium chloride measured after 5 mins by spectrophotometric titration method
# [13] = as §1, with “measuring initial rate constant for” for “measuring”, “0.2500” for “0.25”, “method (reference value: 5.03 +/- 1.02 10^-3/min)” for “method”
# HeLa [14] = test: Cytotoxicity against human HeLa cells assessed as reduction in cell viability at 50 uM after 48 hrs by MTT assay relative to control; format: functional
# [15] = Ionophoric activity across pyranine dye encapsulated pH 7 egg yolk L-alpha-phosphatidylcholine-based liposomal membranes assessed as nitrate ion transport by measuring induction of pH discharge at 0.25 mol% after 20 mins in presence of NaNO3 loaded external vesicles by fluorescence method
# [16] = Ionophoric activity across pyranine dye encapsulated pH 7 POPC-cholesterol-based liposomal membranes assessed as chloride ion transport by measuring induction of pH discharge at 1 mol% after 20 mins in presence of NaCl loaded external vesicles by fluorescence method
# HepG2 [17] = test: Cytotoxicity against human HepG2 cells assessed as reduction in cell viability at 50 uM after 48 hrs by MTT assay relative to control; format: functional; conditions: HepG2, 48 h
# [18] = as §1, with “measuring initial rate constant for” for “measuring”, “0.1250” for “0.25”, “method (reference value: 5.03 +/- 1.02 10^-3/min)” for “method”
# [19] = as §1, with “measuring initial rate constant for” for “measuring”, “0.0625” for “0.25”, “method (reference value: 5.03 +/- 1.02 10^-3/min)” for “method”
# [20] = as §1, with “measuring initial rate constant for” for “measuring”, “1.0” for “0.25”, “method (reference value: 5.03 +/- 1.02 10^-3/min)” for “method”
# [21] = Ionophoric activity across pyranine dye encapsulated pH 7 egg yolk L-alpha-phosphatidylcholine-based liposomal membranes assessed as chloride ion transport by measuring induction of pH discharge at 0.25 mol% after 20 mins in presence of KCl loaded external vesicles by fluorescence method
# [22] = Ionophoric activity across pyranine dye encapsulated pH 7 egg yolk L-alpha-phosphatidylcholine-based liposomal membranes assessed as iodide ion transport by measuring induction of pH discharge at 0.25 mol% after 20 mins in presence of NaI loaded external vesicles by fluorescence method
# [23] = Ionophoric activity across pyranine dye encapsulated pH 7 egg yolk L-alpha-phosphatidylcholine-based liposomal membranes assessed as bromide ion transport by measuring induction of pH discharge at 0.25 mol% after 20 mins in presence of NaBr loaded external vesicles by fluorescence method
# MCF7 [24] = test: Cytotoxicity against human MCF7 cells assessed as reduction in cell viability at 50 uM after 48 hrs by MTT assay relative to control; format: functional; conditions: MCF7, 48 h
# [25] = Binding affinity to chloride ion assessed as 1:1 compound-Cl- complex formation at 4.1 mM using tetra(n-butyl)ammonium chloride by ESI MS spectrometric method
# L02 = test: Cytotoxicity against human LO2 cells assessed as reduction in cell viability after 48 hrs by MTT assay; format: cell-based; conditions: L02, 48 h
# [26] = Ionophoric activity across lucigenin probe encapsulated pH 7 egg yolk L-alpha-phosphatidylcholine-based large unilamellar vesicles loaded with Na2SO4 assessed as chloride ion efflux at 1.56 x 10^-2mol% after 20 mins in presence of NaCl/Na2SO4 loaded external vesicles by fluorescence method
# [27] = (§2) Ionophoric activity across pyranine dye encapsulated pH 7 egg yolk L-alpha-phosphatidylcholine-based liposomal membranes assessed as chloride ion transport by measuring induction of pH discharge at 1.95 x 10^-3 mol% after 20 mins in presence of KCl loaded external vesicles by fluorescence method
# [28] = as §1, with “measuring initial rate constant for” for “measuring”, “4.88 x 10^-4” for “0.25”, “method (reference value: 5.03 +/- 1.02 10^-3/min)” for “method”
# [29] = Ionophoric activity across pyranine dye encapsulated pH 7 egg yolk L-alpha-phosphatidylcholine-based liposomal membranes assessed as chloride ion transport by measuring induction of pH discharge at 1.95 x 10^-3 mol% after 20 mins in presence of LiCl loaded external vesicles by fluorescence method
# [30] = Ionophoric activity across pyranine dye encapsulated pH 7 POPC-cholesterol-based liposomal membranes assessed as chloride ion transport by measuring induction of pH discharge at 7.81 x 10^-3mol% after 20 mins in presence of NaCl loaded external vesicles by fluorescence method
# [31] = as §2, with “measuring initial rate constant for” for “measuring”, “7.81” for “1.95”, “NaCl” for “KCl”, “method (reference value: 5.03 +/- 1.02 10^-3/min)” for “method”
# [32] = (§3) Ionophoric activity across pyranine dye encapsulated pH 7 egg yolk L-alpha-phosphatidylcholine-based liposomal membranes assessed as chloride ion transport by measuring induction of pH discharge at 1.95 x 10^-3 mol% after 20 mins in presence of NaCl loaded external vesicles by fluorescence method
# [33] = Ionophoric activity across pyranine dye encapsulated pH 7 egg yolk L-alpha-phosphatidylcholine-based liposomal membranes assessed as iodide ion transport by measuring induction of pH discharge at 1.95 x 10^-3 mol% after 20 mins in presence of NaI loaded external vesicles by fluorescence method
# [34] = as §3, with “measuring initial rate constant for” for “measuring”, “method (reference value: 5.03 +/- 1.02 10^-3/min)” for “method”
# [35] = Ionophoric activity across pyranine dye encapsulated pH 7 egg yolk L-alpha-phosphatidylcholine-based liposomal membranes assessed as bromide ion transport by measuring induction of pH discharge at 1.95 x 10^-3 mol% after 20 mins in presence of NaBr loaded external vesicles by fluorescence method
# [36] = as §3, with “measuring initial rate constant for” for “measuring”, “1.56” for “1.95”, “10^-2” for “10^-3”, “method (reference value: 5.03 +/- 1.02 10^-3/min)” for “method”
# [37] = Ionophoric activity across pyranine dye encapsulated pH 7 egg yolk L-alpha-phosphatidylcholine-based liposomal membranes assessed as chloride ion transport by measuring induction of pH discharge at 1.95 x 10^-3 mol% after 20 mins in presence of CsCl loaded external vesicles by fluorescence method
# [38] = as §3, with “measuring initial rate constant for” for “measuring”, “9.77” for “1.95”, “10^-4” for “10^-3”, “method (reference value: 5.03 +/- 1.02 10^-3/min)” for “method”
# [39] = as §3, with “measuring initial rate constant for” for “measuring”, “3.91” for “1.95”, “method (reference value: 5.03 +/- 1.02 10^-3/min)” for “method”
# MCF7 [40] = test: Cytotoxicity against human MCF7 cells assessed as reduction in cell viability after 48 hrs by MTT assay; format: functional, cell-based; conditions: MCF7, 48 h
# HepG2 [41] = test: Cytotoxicity against human HepG2 cells assessed as reduction in cell viability after 48 hrs by MTT assay; format: functional, cell-based; conditions: HepG2, 48 h
# A549 [42] = test: Cytotoxicity against human A549 cells assessed as reduction in cell viability after 48 hrs by MTT assay; format: functional, cell-based; conditions: A549, 48 h
# [43] = Ionophoric activity across pyranine dye encapsulated pH 7 egg yolk L-alpha-phosphatidylcholine-based liposomal membranes assessed as nitrate ion transport by measuring induction of pH discharge at 1.95 x 10^-3 mol% after 20 mins in presence of NaNO3 loaded external vesicles by fluorescence method
# [44] = Ionophoric activity across pyranine dye encapsulated pH 7 egg yolk L-alpha-phosphatidylcholine-based liposomal membranes assessed as chloride ion transport by measuring induction of pH discharge at 1.95 x 10^-3 mol% after 20 mins in presence of RbCl loaded external vesicles by fluorescence method
# HeLa [45] = test: Cytotoxicity against human HeLa cells assessed as reduction in cell viability after 48 hrs by MTT assay; format: functional, cell-based
# [46] = Ionophoric activity across lucigenin probe encapsulated pH 7 egg yolk L-alpha-phosphatidylcholine-based large unilamellar vesicles loaded with Na2SO4 assessed as chloride ion efflux at 1.56 x 10^-2mol% after 20 mins in presence of NaCl loaded external vesicles by fluorescence method
smiles,measurement,setting,value
O=[N+]([O-])c1cc(-c2nc3ccccc3[nH]2)cc(-c2nc3ccccc3[nH]2)c1,Activity,[1],Active
same,Activity,[2],inactive
same,Activity,[3],Active
same,Activity,[4],Active
same,Activity,[5],Active
same,fold change (FC),[6],13
same,inhibition at 50 µM,A549 [7],45.9%
same,Activity,[8],inactive
same,Activity,[9],Active
same,Activity,[10],Dose-dependent effect
same,EC50,[10],0.49 mol%
same,pEC50,[10],5.19
same,K,[11],1.28 ×10⁻¹ /min
same,Ka,[12],3.94 ×10³ /M
same,K,[13],6.81 ×10⁻² /min
same,inhibition at 50 µM,HeLa [14],42.5%
same,Activity,[15],inactive
same,Activity,[16],inactive
same,inhibition at 50 µM,HepG2 [17],-2.6%
same,K,[18],4.89 ×10⁻² /min
same,K,[19],3.38 ×10⁻² /min
same,K,[20],1.61 ×10⁻¹ /min
same,Activity,[21],Active
same,Activity,[22],inactive
same,Activity,[23],inactive
same,inhibition at 50 µM,MCF7 [24],48.2%
same,Activity,[25],Active
O=[N+]([O-])c1cc(-c2nc3ccc([N+](=O)[O-])cc3[nH]2)cc(-c2nc3ccc([N+](=O)[O-])cc3[nH]2)c1,pIC50,L02,4.35
same,Activity,[26],inactive
same,Activity,[27],Active
same,fold change (FC),[6],2370
same,inhibition at 50 µM,A549 [7],78.7%
same,K,[28],2.43 ×10⁻² /min
same,Activity,[10],Dose-dependent effect
same,EC50,[10],2.73 ×10⁻³ mol%
same,pEC50,[10],7.44
same,Activity,[29],Active
same,Activity,[30],inactive
same,Ka,[12],8.18 ×10³ /M
same,K,[31],1.81 ×10⁻¹ /min
same,Activity,[32],Active
same,Activity,[33],inactive
same,K,[34],8.98 ×10⁻² /min
same,Activity,[35],inactive
same,K,[36],1.99 ×10⁻¹ /min
same,Activity,[37],Active
same,inhibition at 50 µM,HeLa [14],94.1%
same,K,[38],6.25 ×10⁻² /min
same,inhibition at 50 µM,HepG2 [17],81.3%
same,K,[39],1.35 ×10⁻² /min
same,pIC50,MCF7 [40],5.92
same,pIC50,HepG2 [41],4.95
same,pIC50,A549 [42],4.87
same,Activity,[43],inactive
same,Activity,[44],Active
same,pIC50,HeLa [45],5.89 to 5.92
same,inhibition at 50 µM,MCF7 [24],94.7%
same,Activity,[25],Active
same,Activity,[46],inactive
